Data reported in patent US12624034B2, “Non-covalent modifiers of AKT1 and uses thereof” (Terremoto Biosciences, Inc., priority 2023, dated 2026).
Where two headings read alike, the source gives them in different places.

What was measured:
AKT1 WT = biological target: T1, AKT1 WT (Homo sapiens, UniProt P31749); assay: Live cell AKT1 WT target engagement by NanoBRET competitive probe displacement in HEK293 cells; type: binding; conditions: 2 h at 37° C.
T1 construct: expressed in transfected cells; host or cells: HEK293
T1 sequence (P31749 whole entry): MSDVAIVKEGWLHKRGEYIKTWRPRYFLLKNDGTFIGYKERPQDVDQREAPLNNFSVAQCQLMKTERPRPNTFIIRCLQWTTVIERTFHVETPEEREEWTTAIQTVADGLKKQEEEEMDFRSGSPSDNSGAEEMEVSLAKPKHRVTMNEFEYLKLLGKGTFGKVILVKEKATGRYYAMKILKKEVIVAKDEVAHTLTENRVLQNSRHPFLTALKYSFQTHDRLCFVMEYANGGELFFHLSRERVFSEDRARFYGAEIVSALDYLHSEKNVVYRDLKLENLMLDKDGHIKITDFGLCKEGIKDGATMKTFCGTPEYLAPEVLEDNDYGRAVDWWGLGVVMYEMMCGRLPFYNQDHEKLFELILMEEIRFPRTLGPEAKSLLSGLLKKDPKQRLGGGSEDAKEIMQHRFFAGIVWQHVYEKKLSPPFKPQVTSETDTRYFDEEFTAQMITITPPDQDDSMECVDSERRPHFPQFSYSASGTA

AKT2 = biological target: T2, AKT2 (Homo sapiens, UniProt P31751); assay: Live cell AKT2 target engagement by NanoBRET competitive probe displacement in HEK293 cells; type: binding; conditions: 2 h at 37° C.
T2 construct: expressed in transfected cells; host or cells: HEK293
T2 sequence (P31751 whole entry): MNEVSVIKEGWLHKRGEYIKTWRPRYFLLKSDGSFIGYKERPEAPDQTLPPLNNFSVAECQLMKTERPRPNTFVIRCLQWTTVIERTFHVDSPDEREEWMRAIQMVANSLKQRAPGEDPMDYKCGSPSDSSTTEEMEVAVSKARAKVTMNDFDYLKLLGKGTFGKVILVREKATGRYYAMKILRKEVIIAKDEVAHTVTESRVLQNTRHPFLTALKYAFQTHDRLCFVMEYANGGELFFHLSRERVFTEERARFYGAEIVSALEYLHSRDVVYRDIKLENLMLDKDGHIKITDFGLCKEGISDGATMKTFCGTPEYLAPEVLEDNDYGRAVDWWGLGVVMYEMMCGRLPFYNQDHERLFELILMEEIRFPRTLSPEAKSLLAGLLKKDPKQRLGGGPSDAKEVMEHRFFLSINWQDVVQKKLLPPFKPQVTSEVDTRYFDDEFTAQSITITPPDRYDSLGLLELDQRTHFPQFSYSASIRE

[1] = NanoBRET competitive probe displacement, live HEK293 cells, read-out: AKT1 WT IC50
[2] = NanoBRET competitive probe displacement, live HEK293 cells, read-out: AKT2 IC50
[3] = NanoBRET live cell target engagement, HEK293 cells, read-out: AKT1 WT IC50
[4] = NanoBRET live cell target engagement, HEK293 cells, read-out: AKT2 IC50

SMILES	IC50 (AKT1 WT; [1]) [nM]	IC50 (AKT2; [2]) [nM]	IC50 (AKT1 WT; [3]) [nM]	IC50 (AKT2; [4]) [nM]	other results
Cc1cc(C(=O)N[C@H]2CCc3cc(-n4c(-c5cccnc5N)nc5ccc(-n6cccn6)nc54)ccc32)cc(C(F)(F)F)c1O [Compound 416]	1.43	34	–	–	–
CS(=O)(=O)Nc1ccc(C(=O)N[C@H]2CCc3cc(-n4c(-c5cccnc5N)nc5ccc(-n6cccn6)nc54)ccc32)cc1 [Compound 195]	–	–	12.4	48.9	–
Cn1ccc(Oc2ccc3nc(-c4cccnc4N)n(-c4ccc5c(c4)CC[C@@H]5NC(=O)c4cnc(C(F)F)s4)c3n2)n1 [Compound 558]	71.5	7510	–	–	–
Nc1ncccc1-c1nc2ccc(C#C[C@H]3CCO3)nc2n1-c1ccc2c(c1)CC[C@@H]2NC(=O)c1ccc(C(F)F)nc1 [Compound 453]	28	3770	–	–	–
Nc1ncccc1-c1nc2ccc(-n3cccn3)nc2n1-c1ccc2c(c1)CC[C@@H]2NC(=O)c1cnc(C(F)F)cc1F [Compound 97]	–	–	21.9	83.5	–
COc1cncc(-c2ccc3nc(-c4cccnc4N)n(-c4ccc5c(c4)CC[C@@H]5NC4CCN(C(=O)C5CC5)CC4)c3n2)n1 [Compound 577]	87.9	904	–	–	–
Nc1ncccc1-c1nc2ccc(-n3cccn3)nc2n1-c1ccc2c(c1)CC[C@@H]2NC1CCN(C(=O)C2CC2)C1 (some centres unmarked) [Compound 462]	225	2370	–	–	–
Nc1ncccc1-c1nc2ccc(-n3cccn3)nc2n1-c1ccc2c(c1)CC[C@@H]2NCc1ccccn1 [Compound 131]	–	–	42.5	785	–
Cc1cc(C(=O)N[C@H]2CCc3cc(-n4c(-c5cccnc5N)nc5ccc(-n6cccn6)nc54)ccc32)nn1C [Compound 126]	–	–	721	532	–
Cc1ncccc1C(=O)N[C@@H]1c2ccc(-n3c(-c4cccnc4N)nc4ccc(-n5cccn5)nc43)cc2CC1F (some centres unmarked) [Compound 148]	–	–	16.7	107	–
Nc1ncccc1-c1nc2ccc(-n3cccn3)nc2n1-c1ccc2c(c1)CC[C@@H]2NCc1cccnc1 [Compound 141]	–	–	52.6	734	–
CS(=O)(=O)c1ccn(-c2ccc3nc(-c4cccnc4N)n(-c4ccc5c(c4)CC[C@@H]5NC4CCN(C(=O)C5CC5)CC4)c3n2)n1 [Compound 554]	339	9260	–	–	–
Cn1ccc(N2CCC(N[C@@H]3c4ccc(-n5c(-c6cccnc6N)nc6ccc(-n7cccn7)nc65)cc4CC3F)CC2)n1 (some centres unmarked) [Compound 519]	39.2	1220	–	–	–
Cc1cc(-n2cccn2)nc2c1nc(-c1cccnc1N)n2-c1ccc2c(c1)CC[C@@H]2NC(=O)c1ccc(C(F)F)nc1 [Compound 101]	–	–	11.9	8.02	–
Nc1ncccc1-c1nc2ccc(-n3cccn3)nc2n1-c1ccc2c(c1)CC[C@@H]2NC1CC2(CCN(c3ccccn3)C2)C1 (stereo partly drawn) [Compound 447, N-[(1S)-5-[2-(2-aminopyridin-3-yl)-5-(pyrazol-1-yl)imidazo[4,5-b]pyridin-3-yl]-2,3-dihydro-1H-inden-1-yl]-6-(pyridin-2-yl)-6-azaspiro[3.4]octan-2-amine]	78.5	1490	–	–	–
Cc1csc(-c2ccc3nc(-c4cccnc4N)n(-c4ccc5c(c4)CC[C@@H]5NC(=O)c4nccnc4C)c3n2)n1 [Compound 302]	–	–	20.9	456	–
Nc1ncccc1-c1nc2ccc(-n3cccn3)nc2n1-c1ccc2c(c1)CC[C@@H]2N1Cc2ccncc2C1 [Compound 494]	199	6860	–	–	–
Nc1ccc(C(=O)N[C@H]2CCc3cc(-n4c(-c5cccnc5N)nc5ccc(-n6cccn6)nc54)ccc32)cn1 [Compound 311]	–	–	19.1	191	–
COc1nccc2c1CCC2N[C@H]1CCc2cc(-n3c(-c4cccnc4N)nc4ccc(-n5cccn5)nc43)ccc21 (some centres unmarked) [Compound 508]	75.9	627	–	–	–
CC(=O)Nc1ccc(C(=O)N[C@H]2CCc3cc(-n4c(-c5cccnc5N)nc5ccc(-n6cccn6)nc54)ccc32)cn1 [Compound 232]	–	–	13.5	46.6	–
Cn1nc(C(=O)N[C@H]2CCc3cc(-n4c(-c5cccnc5N)nc5ccc(-n6cccn6)nc54)ccc32)cc1F [Compound 428]	58.9	1730	–	–	–
Nc1ncccc1-c1nc2ccc(-n3ccc(Oc4ccccn4)n3)nc2n1-c1ccc2c(c1)CC[C@@H]2NC1CCN(C(=O)C2CC2)CC1 [Compound 574]	52.4	2420	–	–	–
Cc1coc(-c2ccc3nc(-c4cccnc4N)n(-c4ccc5c(c4)CC[C@@H]5n4ccnn4)c3n2)n1 [Compound 245, (S)-3-(3-(1-(1H-1,2,3-triazol-1-yl)-2,3-dihydro-1H-inden-5-yl)-5-(4-methyloxazol-2-yl)-3H-imidazo[4,5-b]pyridin-2-yl)pyridin-2-amine]	–	–	41.8	1960	–

SMILES	IC50 (AKT1 WT; [1]) [nM]	IC50 (AKT2; [2]) [nM]	IC50 (AKT1 WT; [3]) [nM]	IC50 (AKT2; [4]) [nM]	other results
COc1ncn(-c2ccc3nc(-c4cccnc4N)n(-c4ccc5c(c4)CC[C@@H]5NC(=O)c4ccc(C)nc4)c3n2)n1 [Compound 456, (S)—N-(5-(2-(2-aminopyridin-3-yl)-5-(3-methoxy-1H-1,2,4-triazol-1-yl)-3H-imidazo[4,5-b]pyridin-3-yl)-2,3-dihydro-1H-inden-1-yl)-6-methylnicotinamide]	52.3	715	–	–	–
Nc1ncccc1-c1nc2ccc(N3CCOCC3)nc2n1-c1ccc2c(c1)CC[C@@H]2NC(=O)c1ccc(C(F)F)nc1 [Compound 136]	–	–	19.8	284	–
Nc1ncccc1-c1nc2ccc(-n3cccn3)nc2n1-c1ccc2c(c1)CC[C@@H]2NC(=O)c1cc2n(n1)CCO2 [Compound 242]	–	–	70	3220	–
Cc1ccc(C(C)N[C@H]2CCc3cc(-n4c(-c5cccnc5N)nc5ccc(-n6cccn6)nc54)ccc32)cn1 (some centres unmarked) [Compound 153]	–	–	120	2220	–
Nc1ncccc1-c1nc2ccc(-n3cccn3)nc2n1-c1ccc2c(c1)CC[C@@H]2n1cc(-c2ccncc2)nn1 [Compound 198]	–	–	9.5	113	–
Nc1ncccc1-c1nc2ccc(-n3cccn3)nc2n1-c1ccc2c(c1)CC[C@@H]2NCc1ccc(C(F)F)nc1 [Compound 84]	–	–	113	1960	–
Nc1ncccc1-c1nc2ccc(-n3cccn3)nc2n1-c1ccc2c(c1)CC[C@@H]2NC(=O)c1cccnc1F [Compound 127]	–	–	12.6	126	–
CCC#Cc1ccc2nc(-c3cccnc3N)n(-c3ccc4c(c3)CC[C@@H]4NC(=O)c3ccc(C(F)F)nc3)c2n1 [Compound 412]	26.4	686	–	–	–
Cc1cnc(C(=O)N[C@H]2CCc3cc(-n4c(-c5cccnc5N)nc5ccc(-n6cccn6)nc54)ccc32)cn1 [Compound 185]	–	–	65.3	1540	–
COc1cc(C(=O)N[C@H]2CCc3cc(-n4c(-c5cccnc5N)nc5ccc(-n6cccn6)nc54)ccc32)ccc1O [Compound 260]	–	–	7.55	164	–
CN(C)Cc1ccc(C(=O)N[C@H]2CCc3cc(-n4c(-c5cccnc5N)nc5ccc(-n6cccn6)nc54)ccc32)cn1 [Compound 85]	–	–	36.3	169	–
CNC(=O)c1cccc(C(=O)N[C@H]2CCc3cc(-n4c(-c5cccnc5N)nc5ccc(-n6cccn6)nc54)ccc32)c1 [Compound 292]	–	–	12.9	73.2	–
Cn1nccc1C(=O)N[C@H]1CCc2cc(-n3c(-c4cccnc4N)nc4ccc(-n5cccn5)nc43)ccc21 [Compound 144]	–	–	43.6	520	–
Cc1ncccc1S(=O)(=O)N[C@H]1CCc2cc(-n3c(-c4cccnc4N)nc4ccc(-n5cccn5)nc43)ccc21 [Compound 139]	–	–	89.6	5850	–
Cc1cn([C@H]2CCc3cc(-n4c(-c5cccnc5N)nc5ccc(-n6cccn6)nc54)ccc32)nn1 [Compound 304]	–	–	80.8	4750	–
Nc1ncccc1-c1nc2ccc(-n3cccn3)nc2n1-c1ccc2c(c1)CC[C@@H]2NC(=O)c1ccc2[nH][nH]c(=O)c2c1 [Compound 189]	–	–	554	2850	–
Nc1ncccc1-c1nc2ccc(-n3cccn3)nc2n1-c1ccc2c(c1)CC[C@@H]2n1cc(C2CNC2)nn1 [Compound 250]	–	–	> 1000	> 10000	–
Nc1ncccc1-c1nc2ccc(-n3cccn3)nc2n1-c1ccc2c(c1)CC[C@@H]2NC(=O)c1ccc2ncnn2c1 [Compound 237]	–	–	7.29	28.1	–
COc1ccn(-c2ccc3nc(-c4cccnc4N)n(-c4ccc5c(c4)CC[C@@H]5NC4CN(C(=O)C5CC5)C4)c3n2)n1 [Compound 484]	28.4	3850	–	–	–
Nc1ncccc1-c1nc2ccc(-n3cccn3)nc2n1-c1ccc2c(c1)CC[C@@H]2n1cc(-c2ccccc2)nn1 [Compound 155, (S)-3-(3-(1-(4-phenyl-1H-1,2,3-triazol-1-yl)-2,3-dihydro-1H-inden-5-yl)-5-(1H-pyrazol-1-yl)-3H-imidazo[4,5-b]pyridin-2-yl)pyridin-2-amine]	–	–	–	–	IC50 (AKT1 WT; AKT1 WT IC50 (nM), NanoBRET live cell target engagement, HEK293 cells): 16.5 nM; IC50 (AKT2; AKT2 IC50 (nM), NanoBRET live cell target engagement, HEK293 cells): 197 nM
COc1ccn(-c2ccc3nc(-c4cccnc4N)n(-c4ccc5c(c4)CC(F)[C@@H]5NC4CN(C(=O)C5CC5)C4)c3n2)n1 (some centres unmarked) [Compound 493]	57.6	973	–	–	–
Nc1ncccc1-c1nc2ccc(-n3ccc(OC4CCOCC4)n3)nc2n1-c1ccc2c(c1)CC[C@@H]2NC1CCN(C(=O)C2CC2)CC1 [Compound 517]	31.6	973	–	–	–
COCCOc1ccn(-c2ccc3nc(-c4cccnc4N)n(-c4ccc5c(c4)CC[C@@H]5NC4CCN(c5ccn(C)n5)CC4)c3n2)n1 [Compound 551]	13.1	296	–	–	–
